pEC50: −log10 of the molar value. Read-outs that look alike come from different tables or passages of the source. Marks after values point to notes of the source that are not given here.
Tests used:
[1] = target: T1, hCB1 receptor (Homo sapiens, UniProt P21554); parameters: method as in Gamage et al. [40]; conditions: cited from earlier work
[2] = target: T1, hCB1 receptor; conditions: ref Wouters et al. [31], cited from earlier work
[3] = LC–MS/MS analysis of serum and urine samples of intoxication cases; assay type: in vivo, human; conditions: patient serum
Description: (§1) The data on intoxication cases used for the development of this risk score were obtained from a prospective study. This study included patients who were treated in an emergency department room following the consumption of an NPS. Clinical symptoms and follow‐up information were documented using a structured questionnaire completed by the attending physicians. The methodology has been previously published. Residual serum (obtained from venous blood) and urine samples, accompanied by the completed questionnaires, were sent to the Poisons Information Center Freiburg for further analysis. The toxicological analyses of serum and urine samples were conducted at the Institute of Forensic Medicine Freiburg. No data was available on previous consumption patterns or potential development of tolerance after continued misuse. The study was conducted in accordance with the Declaration of Helsinki and approved by the regional ethics committee of the University of Freiburg (no. 235/13_130683). The intoxication cases included in this study are those in which SCRA use was confirmed by liquid chromatography tandem mass spectrometry (LC–MS/MS).
Serum/blood and urine analyses were conducted at the Institute of Forensic Medicine Freiburg using previously published LC–MS/MS methods, that were modified by adding further analytes present in ‘legal‐high’ products (‘herbal blends’, ‘C‐liquids’ or ‘research chemicals’), and covered approximately 100 different SCRAs. Detailed information can be found in the Supporting Information.
Urine samples were analysed according to previously published and validated method by Franz et al.^2. For sample preparation 0.5 mL of phosphate buffer (pH 6) and 30 μL of β-glucuronidase were added to 0.5 mL of urine. Incubation was for 60 min at 45°C. This was followed by protein precipitation using 1.5 mL acetonitrile containing the internal standard (c = 2 ng/mL) and 0.56 mL 10 M ammonium formate solution, followed by shaking and centrifugation. 1 mL of the organic phase was transferred into an autosampler vial and evaporated to dryness under N2. The samples were reconstituted in 200 μL mobile phase.
Urine sample analysis was performed on a Dionex UltiMate® 3000RS UHPLC (Thermo Scientific, Dreieich, Germany) coupled to an API 5000^TM triple quadrupole instrument with a TurboIonSpray® interface (Sciex, Darmstadt, Germany). Separation was performed on a Luna C18 100 Å (150 x 2 mm, 5 μm) column with the mobile phase consisting of 0.2% HCOOH and 2 mmol/L NH^4+HCOO^− in water (A) and acetonitrile (B).

[4] = target: T1, hCB1 receptor; assay: competitive [3H]CP‐55940 radioligand binding assay (hCB1 receptor affinity); conditions: Ki [nM] (95% CI), [3H]CP‐55940 competition, hCB1 membrane preparations (HEK293‐EBNA), Cheng–Prusoff; 95% CI in brackets
Description: (§2) Receptor assays were performed on three different days and each concentration was tested in duplicate.
From the IC50, the respective Ki values were calculated using the Cheng–Prusoff equation [39].

[5] = target: T1, hCB1 receptor; assay: functional [35S]GTPγS hCB1 activation assay; assay type: biochemical
Description: as §2

[6] = occurrence of SCRAs in intoxication samples of the prospective study; parameters: species or system human; conditions: 2013 to 2021
From the text: For this study, the 10 SCRAs (AB‐[…], ADB‐[…], AB‐FUBINACA, FUB‐AMB, Cumyl‐PEGACLONE, MDMB‐4en‐PINACA, MDMB‐CHMICA, 5F‐MDMB‐PICA, 5F‐ADB and 5F‐PB‐22) which were most frequently detected in intoxications in a prospective observational study during the time period of 2013 to 2021 were selected (see Table 1). Additionally, JWH‐210, a model compound representative of the early SCRAs, along with two substances prevalent in screenings during years 2019/2020 (5F‐Cumyl‐PEGACLONE and 4F‐MDMB‐BICA), were included in this study (see Tables S2–S7). […] JWH‐018 was also included as a reference compound because of its historical use in this capacity. Including both reference compounds facilitates direct comparison with previously published data, thereby enhancing the relevance and interpretability of the results obtained in the present study. Information on the origin of the test and reference compounds and all chemicals used in this study can be found in Table S1.
as §1

[7] = risk score from prevalence in routine forensic samples and intoxication cases (G1, PSS, TSS); parameters: species or system human
From the text: Therefore, higher values indicate substances with a higher risk. […] To take into account the severity of symptoms and the contribution of the specific NPS, two further summands were introduced. The first is based on the PSS, the second on the TSS. Again, higher values were associated with more severe symptoms and a stronger role of the NPS in causing the symptoms.
The risk score is composed of three components (parts G1, G2 and G3) and was designed as follows: (1) Gx=G1x+G2x+G3x,
Equation 2 takes into consideration several components: the number of intoxications with SCRA x in quarter k over the total number of intoxications of all investigated SCRAs in the same quarter; the number of serum/blood samples positive for SCRA x over the total number of serum/blood samples positive for all SCRAs plus the number of urine samples positive for SCRA x over the total number of urine samples positive for all SCRAs (this is divided by two to account for the two different sample types); and the number of quarters in which the SCRA x was prevalent. (2) G1x=∑k=1gak/bk/ck/dk+ek/fk/2/h+i
Consequently, equation 2 was mathematically rearranged. To further simplify the equation and reduce the formula signs, in equation 3 the following simplifications were taken: a/b=ai , c/d=as and e/f=au .
The sum of these quotients was divided by the number of all prevalent quarters (q p ). Prevalent quarters were defined as quarters in which on average the substance was detected in more than 5% of the positive serum and urine samples. If a poisoning occurred in a quarter in which the substance was not prevalent, the number of these quarters was added (q i ). This part of the score has similarities with an OR [42]. If the proportion of routine samples in a given quarter in which an intoxication with the respective substance occurred was zero (a s + a u = 0), a value of 0.01 was used for that quarter in the calculation of the quotient to avoid division by zero.
For part G2, the severity of the intoxication caused by the respective SCRA x was assessed on the basis of reported symptoms and follow‐up information using the PSS [20]. The PSS classifies the intoxication severity into five levels: (0) no, (1) mild, (2) moderate, (3) severe, and (4) fatal intoxication. […] For this purpose, the mean value of the PSS of all intoxications with the respective SCRA x was calculated ( G2x) .
For part G3, the involvement of the SCRA in the respective intoxications was assessed. This was evaluated on the basis of the TSS [21]. Elliott et al. developed the TSS to assess and classify the contribution of NPS in fatalities. In the present study, the TSS was determined to weigh the involvement of the investigated SCRA in the intoxication and the contribution of the SCRA to the observed symptoms. To determine the TSS value, factors such as the determined concentration of the SCRA, the presence of other recreational drugs or medicinal drugs, the general health of the patient and the consumption circumstances need to be considered. […] In cases with more than one drug detected, a TSS of 3 was only assigned where other compounds were present at concentrations below the range in which relevant effects are to be expected.
For the risk score, the mean value of the TSS of all intoxications with substance x was calculated ( G3x) . Analogous to the value of G2x , the value of G3x can theoretically be between 1 and 3. With a value of ‘1’, substance x was not mainly responsible for the symptoms in all of the intoxications (low level of significance), and with a value of ‘3’, it was the main cause in every poisoning in which it was detected.

[8] = intoxication case B (AB‐CHMINACA)

T1 sequence (P21554 whole entry): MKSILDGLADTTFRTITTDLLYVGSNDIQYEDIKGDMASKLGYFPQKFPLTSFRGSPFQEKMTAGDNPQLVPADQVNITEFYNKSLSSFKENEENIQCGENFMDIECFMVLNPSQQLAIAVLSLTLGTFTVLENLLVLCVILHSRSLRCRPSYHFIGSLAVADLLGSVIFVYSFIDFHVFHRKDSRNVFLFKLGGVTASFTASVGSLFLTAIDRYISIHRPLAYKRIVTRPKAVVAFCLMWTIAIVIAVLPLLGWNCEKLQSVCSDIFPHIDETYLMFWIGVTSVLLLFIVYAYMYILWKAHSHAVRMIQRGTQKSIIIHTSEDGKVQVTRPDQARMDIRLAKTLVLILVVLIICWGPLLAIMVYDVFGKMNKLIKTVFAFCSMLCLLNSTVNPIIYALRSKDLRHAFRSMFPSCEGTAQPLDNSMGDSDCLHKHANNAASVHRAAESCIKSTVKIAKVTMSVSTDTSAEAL

COC(=O)C(NC(=O)c1nn(Cc2ccc(F)cc2)c2ccccc12)C(C)C (stereo not shown) [FUB‐AMB]
EC50 ([1]; read-out: [35S]‐GTPγS assay EC50 [nM] (95% CI), ref Gamage et al. [40]): 0.543 nM | [35S]‐GTPγS assay Emax [%] (95% CI) ([1]; relative to CP‐55940, cell without footnote mark, EC50 of the same line from ref Gamage et al. [40]): 69.42 (62.6–76.2) %

O=C(Oc1cccc2cccnc12)c1cn(CCCCCF)c2ccccc12 [5F‐PB‐22]
EC50 ([2]; read-out: βarr2 assay EC50 [nM] (95% CI)): 0.32 nM | βarr2 assay Emax [%] (95% CI) ([2]; relative to CP‐55940): 980.2 ^d (888.2–1072) % | Concentration in serum [3, 8]: ~1.5 ng/mL | Ki [4]: 0.0996 nM | pEC50 [5]: 8.56 | Emax ([5]; read-out: [35S]‐GTPγS assay Emax [%] (95% CI)): 124% | No. of intoxications ([6]; 139 intoxication samples of the prospective study): 13 | Percentage in % ([6]; proportion of 139 intoxications in which the substance was detected): 9.4% | G total (risk score) ([7]; G1+G2+G3, higher value = greater toxicological risk): 9.9 | G2 ([7]; mean Poison Severity Score (PSS) of all intoxications with the SCRA): 1.9 | G3 ([7]; mean Toxicological Significance Score (TSS) of all intoxications with the SCRA): 2.7 | G1 ([7]; proportion in intoxication cases relative to prevalence in routine serum/blood and urine samples per quarter, 2013–2021, >1 over‐represented in intoxications): 5.3

O=C(NC12CC3CC(CC(C3)C1)C2)c1nn(CCCCCF)c2ccccc12 [5F-AKB-48]
Concentration in serum [3, 8]: < 0.1 ng/mL

CNC(C)C(=O)c1cccc(C)c1 (stereo not shown) [3‐MMC]
Concentration in serum ([3]; intoxication case A (AB‐CHMINACA)): 320 ng/mL | Concentration in serum ([3]; intoxication case A (AB‐CHMINACA), listed as 3-MMC): ~3-MMC approximately 320 ng/mL

O=C(c1cccc2ccccc12)c1nn(CCCCCF)c2ccccc12 [THJ-2201]
Concentration in serum [3, 8]: < 0.1 ng/mL

CCCCCn1nc(C(=O)c2cccc3ccccc23)c2ccccc21 [THJ-018]
Concentration in serum [3, 8]: < 0.1 ng/mL
